In patent EP1191024A1, “Thiadiazines and their use as inhibitors of metalloproteinases” (Tschesche, Harald, priority 2000, dated 2002):
Read-outs that look alike come from different tables or passages of the source.

Experiments:
Experiment in all cases: MMP microfluorometric profiling assay (fluorogenic Mca-peptide substrate)
Assay type in all cases: biochemical
MMP-1 = target: T1, MMP-1 (Homo sapiens, UniProt P03956)
T1 construct: MMP-1 from human rheumatoid synovial fibroblasts was purchased; purchased Calbiochem-Novabiochem Corporation, LaJolla; host or cells: human rheumatoid synovial fibroblasts
T1 sequence (P03956 100-469): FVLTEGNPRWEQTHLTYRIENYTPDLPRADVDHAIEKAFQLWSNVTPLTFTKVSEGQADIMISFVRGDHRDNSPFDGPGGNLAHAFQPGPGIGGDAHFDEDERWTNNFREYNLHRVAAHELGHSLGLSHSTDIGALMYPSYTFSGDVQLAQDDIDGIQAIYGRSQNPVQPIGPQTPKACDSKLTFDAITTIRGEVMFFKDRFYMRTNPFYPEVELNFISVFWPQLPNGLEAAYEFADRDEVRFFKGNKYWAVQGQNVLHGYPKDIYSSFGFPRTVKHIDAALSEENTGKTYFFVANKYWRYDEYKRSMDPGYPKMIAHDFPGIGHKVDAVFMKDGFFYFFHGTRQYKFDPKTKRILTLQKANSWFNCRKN
Procedure: (§1) The tested MMP enzymes were prepared more specifically in the laboratories of the applicants, with the exception of MMP-1. MMP-1 from human rheumatoid synovial fibroblasts was purchased from Calbiochem-Novabiochem Corporation, LaJolla. Preparation of the recombinant catalytic domain of human Gelatinase A (cdMMP-2): The catalytic domain of Pro-Gelatinase A was prepared using an E. coli expression system according to the method described by Kröger et al^[19]. The proenzyme was activated with 0.5 mM APMA at 37°C prior to use in the assay. Preparation of the recombinant catalytic domain of human neutrophile Collagenase (cdMMP-8^Met80): The enzyme was expressed in E. coli as an active variant by the method of Kleine et al^[20]. Preparation of PMNL-Gelatinase (MMP-9): Latent PMNL-pro-Gelatinase was prepared from human plasma buffy coat as described by Tschesche et al^[21]. PMNL-pro-Gelatinase was activated prior to use by incubation with Trypsin at 37°C for 10 min. Inactivation of Trypsin was accomplished with TKI. Preparation of the recombinant catalytic domain of human Macrophage Elastase (cdMMP-12): The catalytic domain of MMP-12 was expressed in E. coli. The overexpressed protein was isolated as inclusion bodies and the renatured protein was purified by affinity chromatography with a hydroxamate inhibitor coupled column as described^[22]. Preparation of the recombinant catalytic domain of human Collagenase-3 (cdMMP-13): Human pro-cdMMP-13 was prepared using an E. coli expression system according to the method described^[23]. The isolated pro-cdMMP-13 was activated prior to use by incubation with 5 mM HgCl2 for 2 h at 37°C. Preparation of the recombinant catalytic domain of Membrane-Type-1 MMP (cdMMP-14): The catalytic domain of MMP-14 was expressed in E. coli and was activated by autocatalysis^[24]. Preparation of the recombinant human ectodomain of Membrane-Type-1 MMP (ΔTM-MMP-14): The ectodomain of MMP-14 was expressed in Pichia Pastoris by the method of Roderfeld et al. and activated by yeast proteases (Furin-like-proteases) during maturation^[25].
(§2) The enzymatic activity was measured using a modified version of a resonance energy transfer fluorogenic assay as described^[26]. Progress curves were monitored by following the increase in fluorescence at 393 nm (λex = 328 nm), induced by the cleavage of the (7-methoxycoumarin-4-yl)acetyl-Pro-Leu-Gly-Leu-(3-[2,4-dinitro-phenyl]-L-2,3-diamino-propionyl)-Ala-Arg-NH2 (Mca-Pro-Leu-Gly-Leu-Dpa-Ala-Arg-NH2) fluorogenic substrate by MMPs. The fluorescent MCA-group is quenched by resonance energy transfer to the 2,4-dinitrophenyl group. Matrix metalloproteinases cleave this substrate at the Gly-Leu bond. Cleavage results in the loss of energy transfer and a large increase in fluorescence of the MCA group. This substrate is commercially available from Bachem, Switzerland.
(§3) Enzyme inhibition assays were carried out in MRB which consisted of 50 mM HEPES/NaOH, pH 7.0, 10 mM CaCl2 and 0,02% (w/v) PEG 8000 at 25°C. MMP microfluorometric profiling assay was done in white U-bottomed 96-well plates (Microfluor 1 White, Dynex, USA) with a final substrate concentration of 6 µM MCA-peptide, approximately 0.3 to 5 nM MMP with variable inhibitor concentrations and 2% DMSO vehicle. From a 1.5 mM stock (100% DMSO) the inhibitors were serially diluted with MRB to 15, 10, 5, 3, 1, 0.6, 0.3, 0.1, 0.05, 0.01 and 0.005 µM final assay concentration. Column 1, rows A through H, contained only DMSO for the "enzyme-only" wells in the assay. After preincubation for 30 min at 25°C the reaction was started by addition of substrate and the plate was read on a SpectraFluor Plus (Tecan, Germany) plate reader with excitation at 330 nm and emission at 405 nm with the gain set to 150. Each measurement was done in triplicate to ensure statistically significant results. […]

cdMMP-14 = target: T2, cdMMP-14 (Homo sapiens, UniProt P50281)
T2 construct: made in house; host or cells: E. coli
Procedure: as §1, §2, §3

MMP-9 = target: T3, MMP-9 (Homo sapiens, UniProt P14780)
T3 construct: from tissue; host or cells: human plasma buffy coat (PMNL)
T3 sequence (P14780 107-707 limits assumed): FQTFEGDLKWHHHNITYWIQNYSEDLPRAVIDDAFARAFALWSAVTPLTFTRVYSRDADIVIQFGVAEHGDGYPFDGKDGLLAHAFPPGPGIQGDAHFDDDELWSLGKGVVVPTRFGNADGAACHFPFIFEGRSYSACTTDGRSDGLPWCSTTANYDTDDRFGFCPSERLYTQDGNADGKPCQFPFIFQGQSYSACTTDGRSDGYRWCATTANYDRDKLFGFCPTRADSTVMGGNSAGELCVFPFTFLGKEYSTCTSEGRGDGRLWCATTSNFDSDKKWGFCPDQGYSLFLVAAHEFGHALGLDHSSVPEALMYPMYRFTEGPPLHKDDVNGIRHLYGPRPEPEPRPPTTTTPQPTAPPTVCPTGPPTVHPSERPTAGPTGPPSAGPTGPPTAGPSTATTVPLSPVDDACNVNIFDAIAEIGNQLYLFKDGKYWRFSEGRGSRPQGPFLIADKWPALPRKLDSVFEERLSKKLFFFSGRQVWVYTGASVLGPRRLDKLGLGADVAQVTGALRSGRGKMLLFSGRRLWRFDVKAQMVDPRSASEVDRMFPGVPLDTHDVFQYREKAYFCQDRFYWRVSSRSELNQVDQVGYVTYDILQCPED
Procedure: as §1, §2, §3

cdMMP-13 = cdMMP-13 (Homo sapiens, UniProt P45452)
Procedure: as §1, §2, §3

cdMMP-12 = target: T4, cdMMP-12 (Homo sapiens, UniProt P39900)
T4 construct: The catalytic domain of MMP-12 was expressed in E. coli; made in house; host or cells: E. coli
T4 sequence (P39900 106-263 limits assumed): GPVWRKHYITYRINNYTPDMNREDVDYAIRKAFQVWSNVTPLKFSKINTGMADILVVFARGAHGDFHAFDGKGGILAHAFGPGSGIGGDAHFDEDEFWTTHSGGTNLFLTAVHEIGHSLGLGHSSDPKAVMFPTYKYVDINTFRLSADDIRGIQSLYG
Procedure: as §1, §2, §3

| Compound | IC50 (MMP-1) [nM] | IC50 (cdMMP-14) [nM] | IC50 (MMP-9) [nM] | IC50 (cdMMP-13; read-out: cdMMP-13 IC50) [nM] | IC50 (cdMMP-12) [nM] | percent inhibition (MMP-9; MMP-9, @ 15 (µM)) [%^a)@ 15] | IC50 (cdMMP-13) [nM] |
| --- | --- | --- | --- | --- | --- | --- | --- |
| C[C@H](NS(=O)(=O)c1ccccc1)C(=O)NC1=NN=C(c2ccc(C#N)cc2)CS1 [Example 3, (2S)-N-[5-(4-Cyanophenyl)-6H-1,3,4-thiadiazin-2-yl]-2-[(phenylsulfonyl)amino]-propanamide] | 449 | 459 | 329 | 387 | 447 | – | – |
| C[C@H](NS(=O)(=O)N1CCOCC1)C(=O)NC1=NN=C(c2ccc(Cl)cc2)CS1 [Example 28, (2S)-N-[5-(4-Chlorophenyl)-6H-1,3,4-thiadiazin-2yl-]-2-[(4-morpholinylsulfonyl)amino]propanamide] | 537 | 471 | 1200 | – | 330 | – | 735 |

Further compounds by falling IC50 (MMP-1), results first:

| IC50 (MMP-1) [nM] | IC50 (cdMMP-14) [nM] | IC50 (MMP-9) [nM] | IC50 (cdMMP-13; read-out: cdMMP-13 IC50) [nM] | IC50 (cdMMP-12) [nM] | percent inhibition (MMP-9; MMP-9, @ 15 (µM)) [%^a)@ 15] | Compound | IC50 (cdMMP-13) [nM] |
| --- | --- | --- | --- | --- | --- | --- | --- |
| 629 | 1110 | – | > 15000 | 426 | 40 | CC(C)[C@@H](NS(=O)(=O)c1ccccc1)C(=O)NC1=NN=C(c2ccc(Cl)cc2)CS1 [Example 2, (2R)-N-[5-(4-Chlorophenyl)-6H-1,3,4-thiadiazin-2-yl]-3-methyl-2-[(phenylsulfonyl)amino]butanamide] | – |
| 451 | 346 | 232 | 368 | 444 | – | C[C@@H](NS(=O)(=O)c1ccccc1)C(=O)NC1=NN=C(c2ccc(C#N)cc2)CS1 [Example 1, (2R)-N-[5-(4-Cyanophenyl)-6H-1,3,4-thiadiazine-2-yl]-2-[(phenylsulfonyl)amino]-propanamide] | – |
| 424 | 780 | 2600 | 1410 | 657 | – | CC(C)(C)c1ccc(S(=O)(=O)NCC(=O)NC2=NN=C(c3ccc(Cl)cc3Cl)CS2)cc1 [Example 18, 2-{[(4-tert-Butylphenyl)sulfonyl]amino}-N-[5-(2,4-dichlorophenyl)-6H-1,3,4-thiadiazin-2-yl]acetamide] | – |
